Each structure is given as a SMILES string. In brackets after ≈: the same amount, converted by molar mass. Like-named read-outs stand apart in the source and are kept apart here. Some results are limits rather than exact numbers.

These results are taken from patent US6281342A, “Pradimicin compounds” (Bristol-Myers Squibb Company, priority 1994, dated 2001).

Test [1] concerns Cryptococcus neoformans IAM 4514. The test can be described thus: MIC, two-fold agar dilution, C. neoformans IAM 4514. The test is classed as cell-based. To be noted: IAM4514. The protocol: (§1) Minimum inhibitory concentrations (MICs) of nine 4'-N-substituted pradimicin derivatives were determined by two-fold agar dilution method on phosphate-buffered yeast morphology agar (YMA, pH 7.0, Difco Laboratories). A 5-μl of fungal cell suspension containing 2×10^6 cells/ml (2×10^7 cells/ml for Trichophyton mentagrophytes) were spotted on the surface of the agar plates containing test compound. MICs were recorded after 40-hour incubation at 28° C. except for T. mentagrophytes, which required 60-hour incubation to produce visually evaluable growth on the drug-free control plates and were defined as the lowest antibiotic concentrations showing no growth or less than five discrete colonies per spot.
(§2) Medium: yeast morphology agar + 1/15 M phosphate buffer (pH 7.0)
(§3) Incubation conditions: 28° C., 40 hours (C. albicans ATCC 38247 & T.
(§4) Medium: Yeast morphology agar + 1/15 phosphate buffer (pH 7.0).
Background: In agar dilution, organisms are placed on agar that contains the substance at set levels.

Test [2] has as its system Candida albicans 83-2-14. In words: MIC, two-fold agar dilution, C. albicans 83-2-14. It is filed as cell-based. The conditions noted are these: 83214, YMA pH 7.0, 28° C., 40 hours. The protocol: as §1, §2, §3, §4
Test [3] deals with Candida albicans ATCC 32354. The test can be described thus: MIC, two-fold agar dilution, C. albicans ATCC 32354. It is filed as cell-based. To be noted: ATCC32354, YMA pH 7.0, 28° C., 40 hours. As for the experimental part:
as §1, §2, §3, §4

Test [4] concerns Saccharomyces cerevisiae ATCC 9763. In words: MIC, two-fold agar dilution, S. cerevisiae ATCC 9763. It is filed as cell-based. The conditions noted are these: ATCC9763, YMA pH 7.0, 28° C., 40 hours. The protocol:
as §1, §2, §3, §4

The subject of test [5] is Aspergillus fumigatus IAM 2034. In words: MIC, two-fold agar dilution, A. fumigatus IAM 2034. The test is classed as cell-based. To be noted: IAM2034. As for the experimental part:
as §1, §2, §3, §4

Test [6] concerns Trichophyton mentagrophytes #4329. The test can be described thus: MIC, two-fold agar dilution, T. mentagrophytes #4329. It is filed as cell-based. As for the experimental part:
as §1, §2, §3
(§5) mentagrophytes #4329: 28° C., 60 hours).
as §4

Test [7] has as its system Candida albicans IAM 4888. The test can be described thus: MIC, two-fold agar dilution, C. albicans IAM 4888. It is filed as cell-based. To be noted: IAM4888, YMA pH 7.0, 28° C., 40 hours. The protocol: as §1, §2, §3, §4
Test [8] relates to Cryptococcus neoformans D49. In words: MIC, two-fold agar dilution, C. neoformans D49. The test is classed as cell-based. To be noted: YMA pH 7.0, 28° C., 40 hours. As for the experimental part: as §1, §2, §3, §4
Test [9] has as its system Candida albicans A9540. The test can be described thus: MIC, two-fold agar dilution, C. albicans A9540. It is filed as cell-based. The protocol:
as §1, §2, §3, §4

Test [10] relates to Candida albicans A9540. The test can be described thus: animal or person. It is filed as in vivo, male ICR mice infected with Candida albicans A9540. As for the experimental part:
(§6) The in vivo therapeutic efficacies of seven 4'-N-substituted pradimicin derivatives, KHM-1, KHM-2, KHM-3, KHM-4, KHM-5, KHM-6 and KHM-7 were evaluated in the mouse infected with Candida albicans A9540 and Aspergillus fumigatusIAM 2034. Groups of five specific-pathogen-free male ICR mice weighing 20-25 g at each dose level were intravenously infected with approximately 10 times the 50% lethal dose of C. albicans A9540 (1×10^6 cells/mouse) or A. fumigatus IAM 2034 (1×10^7 cells/mouse). Immediately after the fungal infection, test compounds dissolved with 10% DMSO in distilled water were intravenously given to the mouse at the dosed volume of 0.1 ml/10 g of body weight. […] Untreated control animals died 7 to 13 days post-infection.

Test [11] has as its system Aspergillus fumigatus IAM 2034. The test can be described thus: Therapeutic efficacy in Aspergillus fumigatus systemic infection in mice. The conditions noted are these: IAM2034, 480 h. It is filed as in vivo, male ICR mice infected with Aspergillus fumigatus IAM 2034. The protocol:
as §6

Test [12] deals with Candida albicans ATCC 38247. In words: MIC, two-fold agar dilution, C. albicans ATCC 38247. It is filed as cell-based. The conditions noted are these: ATCC38247, YMA pH 7.0, 28° C., 60 hours (table footnote). The protocol:
as §1, §2, §3, §5, §4

For test [13], the system named is Candida tropicalis 85-8. The test can be described thus: MIC, two-fold agar dilution, C. tropicalis 85-8. The test is classed as cell-based. To be noted: 858, YMA pH 7.0, 28° C., 40 hours. As for the experimental part: as §1, §2, §3, §4
Test [14] deals with Candida tropicalis IFO 10241. The test can be described thus: MIC, two-fold agar dilution, C. tropicalis IFO 10241. To be noted: IFO10241, YMA pH 7.0, 28° C., 40 hours. The test is classed as cell-based. As for the experimental part: as §1, §2, §3, §4
Where [15] appears, read: Cryptococcus neoformans IAM 4514, YMA pH 7.0, 28° C., 40 hours, read-out: MIC.
The mark [16] stands for this setting: Table 3, Cryptococcus neoformans IAM 4514, YMA, read-out: MIC Cn-2.
Where [17] appears, read: Aspergillus fumigatus IAM 2034, YMA pH 7.0, 28° C., 40 hours, read-out: MIC.
The mark [18] stands for this setting: Table 3, Aspergillus fumigatus IAM 2034, YMA, read-out: MIC Af-3.
The mark [19] stands for this setting: Table 3, Trichophyton mentagrophytes #4329, YMA, read-out: MIC TM-4.
The mark [20] stands for this setting: Trichophyton mentagrophytes #4329, YMA pH 7.0, 28° C., 60 hours, read-out: MIC.
[21] abbreviates: Candida albicans A9540, YMA pH 7.0, 28° C., 40 hours, read-out: MIC.
Where [22] appears, read: Table 3, Candida albicans A9540, YMA, read-out: MIC Ca-4.
The mark [23] stands for this setting: 480 h, Table 3, Candida albicans A9540, iv, read-out: PD50 (mice) Ca-4.
Where [24] appears, read: Candida albicans, A9540, 480 h, Table 2, C. albicans, mice, iv, 95% confidence limits in parentheses, read-out: PD50 (50% protection dose).
Setting [25] is: Candida albicans, A9540, in Mus musculus, iv, 480 h, read-out: S/T (No. of survivors/tested).

As for `COc1cc(O)c2c(c1)C(=O)c1c(cc3c(c1O)-c1c(cc(C)c(C(=O)N[C@H](CO)C(=O)O)c1O)[C@H](O[C@@H]1O[C@H](C)[C@H](N(C)N=O)[C@H](O[C@@H]4OC[C@@H](O)[C@H](O)[C@H]4O)[C@H]1O)[C@H]3O)C2=O` [KHM-5, 4'-N-Nitrosopradimicin FA-1], the MIC was 3.1 µg/mL (≈ 3.5 µM) in test [1] (setting [15]); 3.1 µg/mL (≈ 3.5 µM) in test [1] (setting [16]); 6.3 µg/mL (≈ 7.11 µM) in [2]; 6.3 µg/mL (≈ 7.11 µM) in test [3]; 3.1 µg/mL (≈ 3.5 µM) in test [4]; 3.1 µg/mL (≈ 3.5 µM) in test [5] (setting [17]). Moreover, the MIC amounted to 3.1 µg/mL (≈ 3.5 µM) in test [5] (setting [18]); 6.3 µg/mL (≈ 7.11 µM) in test [6] (setting [19]); 6.3 µg/mL (≈ 7.11 µM) in test [6] (setting [20]); 6.3 µg/mL (≈ 7.11 µM) in test [7]; 3.1 µg/mL (≈ 3.5 µM) in test [8]; 6.3 µg/mL (≈ 7.11 µM) in test [9] (setting [21]). The MIC in test [9] (setting [22]) is 6.3 µg/mL (≈ 7.11 µM); in [12], 3.1 µg/mL (≈ 3.5 µM); in [13], 12.5 µg/mL (≈ 14.1 µM); in [14], 12.5 µg/mL (≈ 14.1 µM). Besides, the ED50 is greater than 50 mg/kg in [10] (setting [23]); greater than 50 mg/kg in test [10] (setting [24]); greater than 50 mg/kg in test [11] (Aspergillus fumigatus, Table 2, A. fumigatus, mice, iv, 95% confidence limits in parentheses, read-out: PD50 (50% protection dose)); greater than 50 mg/kg in [11] (Table 3, Aspergillus fumigatus IAM 2034, iv, read-out: PD50 (mice) Af-3). Also, the responders at 12.5 mg/kg is 20% in test [10] (setting [25]) and 0% in test [11] (Aspergillus fumigatus, A. fumigatus, mice, 12.5 mg/kg iv, 20th day post-infection, read-out: S/T (No. of survivors/tested) (converted)). The responders at 25 mg/kg in [10] (setting [25]) is 0%; in test [11] (Aspergillus fumigatus, A. fumigatus, mice, 25 mg/kg iv, 20th day post-infection, read-out: S/T (No. of survivors/tested) (converted)), 0%. Further, the responders at 50 mg/kg is 40% in test [10] (setting [25]) and 40% in test [11] (Aspergillus fumigatus, A. fumigatus, mice, 50 mg/kg iv, 20th day post-infection, read-out: S/T (No. of survivors/tested) (converted)).

As for `COc1cc(O)c2c(c1)C(=O)c1c(cc3c(c1O)-c1c(cc(C)c(C(=O)N[C@H](C)C(=O)O)c1O)[C@H](O[C@@H]1O[C@H](C)[C@H](N)[C@H](O[C@@H]4OC[C@@H](O)[C@H](O)[C@H]4O)[C@H]1O)[C@H]3O)C2=O` [Pradimicin C], the MIC in test [1] (setting [15]) was found to be 0.8 µg/mL (≈ 0.968 µM); in test [1] (setting [16]) it was 0.8 µg/mL (≈ 0.968 µM); in test [2], 50 µg/mL (≈ 60.5 µM); in test [3] it was 6.3 µg/mL (≈ 7.62 µM); in [4], 6.3 µg/mL (≈ 7.62 µM); in test [5] (setting [17]) it was 3.1 µg/mL (≈ 3.75 µM). Further, the MIC in test [5] (setting [18]) was found to be 3.1 µg/mL (≈ 3.75 µM); in test [6] (setting [19]) it was 3.1 µg/mL (≈ 3.75 µM); in test [6] (setting [20]), 3.1 µg/mL (≈ 3.75 µM); in test [8] it was 0.8 µg/mL (≈ 0.968 µM); in [9] (setting [21]), 25 µg/mL (≈ 30.2 µM); in test [9] (setting [22]), 25 µg/mL (≈ 30.2 µM). Moreover, the MIC worked out at 3.1 µg/mL (≈ 3.75 µM) in test [12], 100 µg/mL (≈ 121 µM) in test [13] and 100 µg/mL (≈ 121 µM) in test [14]. The ED50 in [10] (setting [23]) is 14 mg/kg; in [10] (setting [24]) it was 13 mg/kg. Moreover, the responders at 6.3 mg/kg in [10] (Candida albicans, A9540, 480 h, C. albicans, mice, 6.3 mg/kg iv, 20th day post-infection, read-out: S/T (No. of survivors/tested) (converted)) was 40%. For the same molecule, the responders at 12.5 mg/kg in test [10] (Candida albicans, A9540, 480 h, C. albicans, mice, 12.5 mg/kg iv, 20th day post-infection, read-out: S/T (No. of survivors/tested) (converted)) is 40%. For the same molecule, the responders at 25 mg/kg in [10] (Candida albicans, A9540, 480 h, C. albicans, mice, 25 mg/kg iv, 20th day post-infection, read-out: S/T (No. of survivors/tested) (converted)) was 100%. In test [10] (Candida albicans, A9540, 480 h, C. albicans, mice, 50 mg/kg iv, 20th day post-infection, read-out: S/T (No. of survivors/tested) (converted)), the responders at 50 mg/kg is 0%.

Regarding `COc1cc(O)c2c(c1)C(=O)c1c(cc3c(c1O)-c1c(cc(C)c(C(=O)N[C@H](C)C(=O)O)c1O)[C@H](O[C@@H]1O[C@H](C)[C@H](NC(=N)N)[C@H](O[C@@H]4OC[C@@H](O)[C@H](O)[C@H]4O)[C@H]1O)[C@H]3O)C2=O` [KHM-8, 4'-Guanidinopradimicin C], the minimal inhibitory concentration (MIC) in [1] (setting [15]) was 6.3 µg/mL (≈ 7.25 µM); in test [1] (setting [16]) it was 6.3 µg/mL (≈ 7.25 µM); in test [2], greater than 100 µg/mL; in [3], 12.5 µg/mL (≈ 14.4 µM); in test [4], 25 µg/mL (≈ 28.8 µM); in [5] (setting [17]), 3.1 µg/mL (≈ 3.57 µM). Also, the MIC in test [5] (setting [18]) came out at 3.1 µg/mL (≈ 3.57 µM); in test [6] (setting [19]), 3.1 µg/mL (≈ 3.57 µM); in [6] (setting [20]) it was 3.1 µg/mL (≈ 3.57 µM); in test [7], 12.5 µg/mL (≈ 14.4 µM); in test [8], 6.3 µg/mL (≈ 7.25 µM); in test [9] (setting [21]), 12.5 µg/mL (≈ 14.4 µM). Besides, the minimum inhibitory concentration (MIC) was 12.5 µg/mL (≈ 14.4 µM) in test [9] (setting [22]), greater than 100 µg/mL in test [13] and greater than 100 µg/mL in [14].

A word on the MIC: it is the smallest concentration in the dilution series that meets the test's criterion for growth inhibition.
